# Results from article PMC9952391, “The Role of Acetyl Zingerone and Its Derivatives in Inhibiting UV-Induced, Incident, and Delayed Cyclobutane Pyrimidine Dimers” (Antioxidants, 2023).
# How the values were obtained:
# melanin in Mel-a cells = experiment: Melanin amount in melanocytes cultured in varied tyrosine; format: cell-based; details: 50 µg/mL
# Description: The amino acid tyrosine is essential for melanin synthesis, and it is added to the OptiMem medium at a proprietary concentration by ThermoFisher. Assuming this concentration to be “100% tyrosine”, we purchased the “custom-prepared, tyrosine-free” medium from ThermoFisher. This medium lacked tyrosine or its precursors, which include L-tyrosine, L-tyrosine-2Na-2H2O, L-tyrosine-Di-sodium salt, Hypoxanthine, and Sodium Hypoxanthine. Mel-a (pigmented mouse melanocyte) cells were cultured in regular cell culture medium containing 100% tyrosine, and in medium containing 20%, 4%, or 0% of the total tyrosine amount. This was achieved by diluting the regular OptiMem with the one containing no tyrosine (tyrosine-free, 0% tyrosine). […] Since the cells cultured in 0%-tyrosine medium lost their pigment over time (Figure 5) and the cell pellets were almost white or opaque in color, we assumed that the minimal amount of tyrosine from the horse serum used in the cell culture medium was not sufficient for melanin synthesis. To estimate the amount of melanin, 3 × 10^6–5 × 10^6 cells were lysed in 1M sodium hydroxide (NaOH) by heating them at 100 °C for 1–2 h, which was followed by a 10-min spin at 14,000 rpm at room temperature to remove any cell debris. Absorbance of the supernatant was recorded using the supernatant in a 96-well plate in triplicates from each sample, at 460–490 nm. Synthetic melanin (Cat. M0418, Sigma) was dissolved in methanol and used as a positive control to generate standard curves to estimate the melanin amount in cell lysates. The number of cells in each pellet was used as a normalization factor for each experimental condition. In a complementary experiment, cells were first bleached out of melanin completely by culturing them in tyrosine-free medium, followed by 100/20/4/0% tyrosine (not shown) treatment. This seemed to be cytotoxic, comparatively more so in 100% tyrosine, probably owing to the toxicity of the sudden rush of melanin derivatives and the oxidative stress generated during melanin synthesis.
# [1] = system: Xpa, Xpc, Mitf, Xrcc1 expression in Mel-a; experiment: qPCR expression of NER pathway genes, Mel-a; format: cell-based, mouse
# Description: (§1) Various cell types were collected 24-h post incubation with 200 µg/mL AZ and MBPD, with and without ssUV exposure. RNA was isolated using a Quick-RNA isolation kit (Cat. R1050, Zymo Research). The cDNA was prepared using a High-Capacity cDNA Reverse Transcription Kit (Cat. 4368814, ThermoFisher Scientific). The gene expression of XPA, XPC, and MITF genes was assessed using the following primers. β-actin was used as an internal control for normalizations and data analyses. F1-R1 and F2-R2 represents two primer pairs which were used in the qPCR experiments.
# MMP-12 = system: MMP-12; design: method as in PMID 31465741; details: in vitro assays; cited from earlier work
# [2] = system: incident CPDs (iCPDs) in NBHF cells; experiment: iCPD assessment by DNA ELISA after ssUV, NBHF; format: cell-based, human
# Description: (§2) For UV exposures, we used a “SOL-UV6 ultraviolet solar simulator” from Newport irradiators. It is equipped with a Xenon arc lamp where the output is varied using the integrated variable attenuator aperture, which provides the ability to vary the output from 10% to 100% of the maximum available solar constants. The output spectrum is flat from 320 nm to 400 nm and no values are below 300 nm. This is abbreviated as “ssUV” for “solar-simulated UV” throughout the text. Various cell types seeded at ~50% confluency, were treated with the AZ and analogs at concentrations mentioned in the data figures for 24–h. Cells at ~80–90% confluency (untreated controls), were washed twice with PBS and exposed to 18 kJ/m^2 of ssUV in minimal amount of PBS (ex. 2 mL PBS in a 60 mm cell culture dish) without any dish lid in place. […] The ssUV apparatus was monitored almost daily using UV meters for any emissions below 300 nm. The dose was decided based upon the 80–90% cell survival post UV exposure. After exposure, one time point was collected immediately to assess iCPDs, whereas more dishes were incubated in cell culture medium, inside the cell culture incubator, for various time points to be collected post UV to assess dCPDs. For dCPD induction, it is important that the cell culture incubator is not opened for at least 30 min (the first time point post UV) to avoid possible interference from the CO2/O2 ratio, which will be altered upon opening the incubator doors. Cells were collected by scraping and washed once with PBS, which was followed by DNA isolation using a Quick DNA miniprep Kit (Cat. D3024, Zymo Research, Irvine, CA, USA). CPDs were assessed using our previously established DNA ELISA protocols. In brief, ELISA was performed using mouse monoclonal Anti-CPD (Cat. CAC-NM-DND-001, Clone TDM-2, CosmoBio, Inc., Carlsbad, CA, USA). Flat-bottom, 96-well plates (Cat. 2801, Thermo Scientific, Waltham, MA, USA) were coated overnight with 50 µL of protamine sulphate (0.005–0.05%, Cat. P3369, Sigma, St. Lois, MO, USA) in distilled water. After washing twice with water, heat-denatured DNA was plated in triplicates from each sample, into the protamine sulphate coated plate wells (50–100 ng/well in 50 µL PBS) and incubated overnight at 37 °C. The plates were washed 5 times with 200 µL of PBST (PBS containing 0.05% Tween-20 Cat. P7949, Sigma), and blocked with 2–4% FBS in PBST (blocking buffer) for 1 h at room temperature (RT). The plates were incubated with 100 µL of a 1:1000 dilution of anti-CPD antibody in blocking buffer, and incubated for 30 min at 37 °C, which was followed by 5 washes in PBST. Next, the plates were incubated with 100 µL of a 1:2000 dilution of Biotin-F(ab’)2 fragment of anti-mouse IgG(H+L) (Cat. B-2763, Life Technologies) in blocking buffer for 30 min at 37 °C. Detection was conducted using 100 µL of a 1:10,000 dilution of Streptavidin HRP (Cat. 434323, Life Technologies) in 2% FBS for 30 min at 37 °C, which was followed by 5 washes. The plates were washed once with citrate phosphate buffer (24.3 mM citric acid monohydrate, J.T. Baker Cat. 0110-01- and 51.4-mM sodium phosphate dibasic, Sigma Cat. S7907, pH 5.0). The o-phenylene diamine dihydrochloride (Cat. P8287-50TAB, Sigma) was used as a HRP substrate at 400 µg/mL in citrate phosphate buffer for 5–10 min. A measure of 50 µL of 2M H2SO4 was used to stop the reaction as soon as the color developed (5–10 min incubation in substrate), and OD was measured at 490 nm using a Synergy-2 multimode microplate reader (BioTek, Winooski, VT, USA).
# [3] = system: Xpa, Xpc, Mitf, Xrcc1 expression in Mel-c; experiment: qPCR expression of NER pathway genes, Mel-c; format: cell-based, mouse; details: 24 h incubation
# Description: as §1
# melanocytes = system: melanocytes; design: method as in PMID 31538664; details: 25 µg/mL; cited from earlier work
# [4] = system: nitrotyrosine / nitric oxide synthase (NOS) activity in Mel-a melanocytes; experiment: Immunofluorescence for nitrotyrosine (marker of NOS activity); format: cell-based, mouse; details: 50 µg/mL, 24–36 h
# Description: Posttranslational modification nitrotyrosine was used as a marker of nitric oxide synthase (NOS) activity. Melanocytes were cultured on collagen-coated, glass-bottom dishes (cat. P35G-1.5-14-C, MatTek, Ashland, MA, USA). After various treatments, cells were fixed with 4% formaldehyde for 10 min at RT, washed with PBS, and permeabilized with 0.5% Triton-X in PBS for 10 min. After blocking for non-specific antibody binding using 5% goat serum (Cat. 16210064, ThermoFisher Scientific) and 1% globulin free BSA (Cat. 001-000-161, Jackson ImmunoResearch, West Grove, PA, USA) in 0.1% Triton-x in PBS (blocking buffer) for 2 h at room temperature, cells were incubated with 1:1000 dilution of anti-nitrotyrosine antibody (Cat. A-21285, ThermoFisher Scientific) overnight at 4 °C. Detection was conducted using Alexa Fluor 488 Goat Anti-rabbit IgG (Cat. A-11008, Life Technologies). Imaging was performed using a ZEISS Axio Observer microscope. Approximately 5–10 images per condition, with ~70–100 cells per image, were quantitated for nitrotyrosine fluorescence using ImageJ software.
# [5] = system: incident CPDs (iCPDs) in HaCaT cells; experiment: iCPD assessment by DNA ELISA after ssUV, HaCaT; format: cell-based, human; details: 250 µg/mL, 24 h preincubation
# Description: (§3) For UV exposures, we used a “SOL-UV6 ultraviolet solar simulator” from Newport irradiators. It is equipped with a Xenon arc lamp where the output is varied using the integrated variable attenuator aperture, which provides the ability to vary the output from 10% to 100% of the maximum available solar constants. The output spectrum is flat from 320 nm to 400 nm and no values are below 300 nm. This is abbreviated as “ssUV” for “solar-simulated UV” throughout the text. Various cell types seeded at ~50% confluency, were treated with the AZ and analogs at concentrations mentioned in the data figures for 24–h. Cells at ~80–90% confluency (untreated controls), were washed twice with PBS and exposed to 18 kJ/m^2 of ssUV in minimal amount of PBS (ex. 2 mL PBS in a 60 mm cell culture dish) without any dish lid in place. […] The ssUV apparatus was monitored almost daily using UV meters for any emissions below 300 nm. The dose was decided based upon the 80–90% cell survival post UV exposure. After exposure, one time point was collected immediately to assess iCPDs, whereas more dishes were incubated in cell culture medium, inside the cell culture incubator, for various time points to be collected post UV to assess dCPDs. For dCPD induction, it is important that the cell culture incubator is not opened for at least 30 min (the first time point post UV) to avoid possible interference from the CO2/O2 ratio, which will be altered upon opening the incubator doors. Cells were collected by scraping and washed once with PBS, which was followed by DNA isolation using a Quick DNA miniprep Kit (Cat. D3024, Zymo Research, Irvine, CA, USA). CPDs were assessed using our previously established DNA ELISA protocols. In brief, ELISA was performed using mouse monoclonal Anti-CPD (Cat. CAC-NM-DND-001, Clone TDM-2, CosmoBio, Inc., Carlsbad, CA, USA). […] A measure of 50 µL of 2M H2SO4 was used to stop the reaction as soon as the color developed (5–10 min incubation in substrate), and OD was measured at 490 nm using a Synergy-2 multimode microplate reader (BioTek, Winooski, VT, USA).
# [6] = system: incident CPDs (iCPDs) in pigmented C57BL/6 melanocytes (Mel-a); experiment: iCPD assessment by DNA ELISA after ssUV, Mel-a; format: cell-based, mouse
# Description: as §2
# [7] = system: delayed (dark) CPDs (dCPDs) in Mel-a cells; experiment: dCPD assessment by DNA ELISA post ssUV, Mel-a; format: cell-based, mouse; details: Mel-a, 50 µg/mL, 24–36 h preincubation, 0.5 to 4 h post ssUV, Figure 4C
# Description: as §3
# MMP-1 = system: MMP-1; design: method as in PMID 31465741; details: in vitro assays; cited from earlier work
# [8] = system: incident CPDs (iCPDs) in albino C57BL/6 melanocytes (Mel-c); experiment: iCPD assessment by DNA ELISA after ssUV, Mel-c; format: cell-based, mouse; details: various doses up to 1 mg/mL, 24 h, Figure 4B
# Description: as §3
# MMP-3 = system: MMP-3; design: method as in PMID 31465741; details: in vitro assays; cited from earlier work
# [9] = system: human keratinocytes (HaCaT); experiment: Cell survival assay (Alamar blue), keratinocytes; format: cell-based; details: 24 h pre-incubation, Supplementary Figure S2
compound,measurement,setting,value
"COc1cc(CC(C(C)=O)C(C)=O)ccc1O [AZ, 3-(4-Hydroxy-3-methoxybenzyl)-pentane-2,4-dione]",Impact on melanin,melanin in Mel-a cells; different tyrosine variations,did not show any impact
same,Cell death on longer incubation,melanin in Mel-a cells; 2–3 weeks incubation,10–15%
same,NER pathway gene expression post UV exposure,"[1]; 200 µg/ml, 24 h, then 18 kJ/m2 ssUV, various time points, relative to UV-induced upregulation",elevated slightly
same,"Gene expression of Xpa, Xpc and Mitf (NER pathway)","[1]; 24 h incubation, no UV, qPCR",upregulated
same,Gene expression of Xrcc1,"[1]; 24 h incubation, qPCR",remained unaffected
same,Inhibition of MMP-12 activity,MMP-12,inhibited
same,Blockade of iCPDs,"[2]; 1 mg/mL, 24 h preincubation",~ 50%
same,iCPD inhibition across doses,"[2]; various doses, Figure 3C / Supplementary Figure S2B",minimal effect
same,Gene expression of Xrcc1,[3],remained unaffected
same,"Gene expression of Xpa, Xpc and Mitf (NER pathway)",[3]; no UV,remained unaffected
same,Effect on iCPDs,melanocytes,without any significant effect
same,Inhibition of delayed or dark CPDs (dCPDs),melanocytes,inhibition
same,Amount of nitrotyrosine (NOS activity marker),[4],reduced the amount of nitrotyrosine
same,Blockade of iCPDs,[5],~ 50%
same,Blockade of iCPDs,"[6]; 50 µg/mL, 24-h preincubation, 18 kJ/m^2 ssUV",~ 30%
same,iCPD inhibition across doses,"[6]; various doses up to 1 mg/mL, 24 h, Figure 4A",blocked iCPD generation in a dose-dependent manner
same,Inhibition of delayed CPDs (dCPDs),[7],inhibited dCPD formation almost completely
same,Inhibition of MMP-1 activity,MMP-1,inhibited
same,iCPD inhibition across doses,[8],no significant impact
same,Inhibition of MMP-3 activity,MMP-3,inhibited
same,Cytotoxicity at 1000 µg/ml,[9],cytotoxic
"COc1ccc(CC(C(C)=O)C(C)=O)cc1OC [DMBPD, 3-(3,4-Dimethoxy-benzyl)-pentane-2,4-dione]",Inhibition of iCPD formation,"[2]; 50 µg/mL, 24 h preincubation, 18 kJ/m^2 ssUV, Figure 3B",inhibited iCPD formation to varying extents
